Measurements published in patent publication US20240130957A1, “EXTRACTS OF ISOCHRYSIS SPECIES/TISOCHRYSIS SPECIES” (SYMRISE AG, priority 2020, published 2024).

How the values were obtained:
skin = conditions: similar to the effect seen with dihydroxyacetone; cited from earlier work
UVA-induced ROS = assay: Reduction of UVA-induced ROS in organ culture of human skin (DCFH-DA); format: cell-based
Protocol: Organ culture of human skin was performed starting from a skin sample, exciding pieces of approximately 8×3 mm (ø×thickness). Skin samples (6 per treatment) were cultured in an air-liquid interface in a perforated ring of stainless steel in contact with culture medium (modified Williams' E medium).
At start of the skin culture, in parallel to untreated, the formulations 14.1 to 14.3 and 100% tocopherol acetate were applied topically on the skin samples and afterwards they were cultivated overnight. On the next day, the topical treatments were renewed for 1 hour. In parallel, culture medium with 100 μM of 2′,7′-dichlorofluorescin diacetate (DCFH-DA, Sigma #D6883) was prepared. After 1 hour of incubation of the skin samples, the culture medium was replaced by the medium containing DCFH-DA and the skin samples were incubated for 30 minutes. Then, the skin samples were washed in PBS buffer and UVA irradiation (lamp: Bio Sun by Vilber Lourmat, 60 J/cm2) was performed. Afterwards, the skin samples were harvested, cryo-fixed and cut at the cryostat for image acquisition and analysis. The image acquisition was performed using Olympus BX51 microscope and Olympus DP70 camera. Two skin sections for each skin sample were cut and the related images were acquired and analysed. Doing so, 12 images were obtained for each formulation for analysis. Image analysis was performed within the dermis area selected from the upper part by following the perimeter of the basal lamina to the deep dermis. The obtained values from were normalized upon the dimension of the selected area.

| Compound | production of free radicals (skin) | reduction of UVA-induced ROS vs untreated UVA-irradiated (UVA-induced ROS; 100% tocopherol acetate, topical) [%] | Modulation vs untreated + UVA (UVA-induced ROS; UVA 60 J/cm2) [%] | Mean ROS score (UVA-induced ROS; UVA 60 J/cm2, topical overnight and renewed 1 hour, untreated no UVA 0.015, untreated + UVA 0.573) |
| --- | --- | --- | --- | --- |
| O=C(CO)[C@H](O)CO [Erythrulose, D-Erythrulose] | increase production of free radicals | – | – | – |
| CC(=O)Oc1c(C)c(C)c2c(c1C)CCC(C)(CCC[C@H](C)CCC[C@H](C)CCCC(C)C)O2 (stereo partly shown) [Tocopherol acetate] | – | 73 | −73 | 0.157 |
